Reference: BindingDB's records for doi:10.1021/acs.jmedchem.5b01913 (Dalian University of Technology, 2016)

Legend:
[1] = Inhibition of MDM2 in human HCT116 p53+/+ cells assessed as growth inhibition
[2] = Inhibition of Bcl2 in human DMS53 cells assessed as growth inhibition

CC(C)Oc1ccc(C(=O)Nc2c(C(=O)O)nn(-c3ccc(Oc4ccccc4)cc3)c2-c2ccc(OC(C)C)cc2)cc1
IC50 [1]: 5 µM
IC50 [2]: 5 µM
